pIC50: −log10 of the molar value.
What follows are compounds tested against T1, leukotriene receptor (Cavia porcellus, UniProt Q2NNR5) (assay: Binding of ^3 H-Leukotriene D4 to Guinea Pig Lung Membranes (RBL)). Settings: ^3 H-LTD4, guinea pig lung membranes; read-out: IC50 RBL1.
T1 construct: 20 mg original tissue wet weight of guinea pig lung membranes; tissue Kuiper Rabbit Farm, Gary, IN (animals); host or cells: guinea pig lung, crude membranes
T1 sequence (Q2NNR5 1-340): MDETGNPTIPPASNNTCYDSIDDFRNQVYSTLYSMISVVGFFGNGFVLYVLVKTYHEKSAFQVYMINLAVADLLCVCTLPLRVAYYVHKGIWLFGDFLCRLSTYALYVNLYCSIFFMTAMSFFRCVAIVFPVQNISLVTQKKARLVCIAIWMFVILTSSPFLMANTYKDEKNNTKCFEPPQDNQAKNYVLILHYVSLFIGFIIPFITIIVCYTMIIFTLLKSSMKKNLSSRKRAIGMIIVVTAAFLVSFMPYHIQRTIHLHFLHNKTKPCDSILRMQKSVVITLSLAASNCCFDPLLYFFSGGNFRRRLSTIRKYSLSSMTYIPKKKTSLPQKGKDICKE
Experimental: Additionally, the activity, of the compounds having the Formula I of the present invention is determined by the well known leukotriene receptor binding assay that is described by R. F. Bruns, W. J. Thomsen and T. A. Pugsley in Life Sciences, 33, 645 (1983) or the Herxheimer in vivo antiallergy test described in H. Herxheimer, J. Physiol. (London), Vol. 177, p. 251 (1952).
Binding of ^3 H-Leukotriene D4 to Guinea Pig Lung Membranes (RBL)
[14,15-^3 H]leukotriene D4 (^3 H-LTD4) (25 Ci/mmol and 40 Ci/mmol) is purchased from New England Nuclear. Unlabeled LTC4 is a gift of Ono Pharmaceuticals (Japan). LTC4, LTD4, and LTE4 are purchased as methyl esters from Paesel GmbH (Frankfurt, W. Germany). Concentrations of the Paesel leukotrienes are calculated from their absorbance at 280 nm. Leukotriene esters are saponified overnight under N2 in 3.3% potassium carbonate at room temperature. Tritiated leukotrienes are stored as received from New England Nuclear at -20° C. Ono LTC4 (5 μg/ml is stored at -60° C. in phosphate buffer pH 6.8. Saponified Paesel leukotrienes are stored at -60° C. in 3.3% potassium carbonate (pH 9.0-9.5). Aliquots of leukotrienes are taken from stock solutions immediately after thawing, after which the stock solutions are immediately refrozen. 2-Amino-2-(hydroxymethyl)-1,3-propanediol (Tris) is Sigma pH 7.7 pre-set crystals, and dimethylsulfoxide is Aldrich Gold Label.
Preparation of crude lung membranes
Two pairs of lungs (1.3 g) from freshly sacrificed 300 g male guinea pigs (older animals gave substantially lower binding) from Kuiper Rabbit Farm, Gary, IN are disrupted with a Polytron PT 10 (setting 4) for 30 seconds in 20 ml ice-cold 50 mM Tris adjusted with HCl to pH 7.7 at 25° C. (Tris buffer), filtered through a single layer of gauze to remove connective tissue, and centrifuged at 50,000 xg for ten min. The pellet is resuspended by homogenization with a Polytron in 20 ml Tris buffer, centrifuged at 50,000 xg for ten min., resuspended, incubated at 37° C. for 30 minutes, and centrifuged again. The final pellet is resuspended in Tris buffer and either used fresh or stored at -70° C.
All incubations are in triplicate for 60 minutes at 25° C. in 12×75 mm polystyrene tubes containing 1 ml Tris buffer with 20 mg original tissue wet weight of guinea pig lung membranes, 0.2 nM ^3 H-LTD4 (6,000-11,000 cpm), 10 mM MgCl2, and 1% dimethylsulfoxide. Leukotrienes are diluted in Tris buffer. All other test compounds are dissolved at 10 mM in dimethylsulfoxide on the same day as the experiment, and diluted in dimethylsulfoxide to 100× the final incubation concentration. Control incubations receive an equal volume (10 μl) of dimethylsulfoxide; the resulting concentration of dimethylsulfoxide had no effect on binding. ^3 H-LTD4 is diluted to 2 nM in Tris buffer. The membrane suspension (20 mg/0.89 ml) contains sufficient MgCl2 to give 10 mM final concentration in the incubation. […] All additions are performed at 0° C. Immediately after the last addition, the incubation is initiated by agitating the rack of tubes on a vortex mixer and warming to 25° C. in a water bath. Tubes are vortexed at least once more during the incubation to ensure that the membranes remained suspended. Incubations are terminated after 60 minutes by filtering under reduced pressure through 25 mm Whatman GF/B filters followed by rapid washing three times with 4 ml of ice-cold Tris buffer. Filters are added to scintillation vials with 8 ml Formula 947 (New England Nuclear), left overnight, shaken, and the radioactivity counted in a scintillation counter (efficiency 40%). Nonspecific binding, defined as binding of ^3 H-LTD4 in the presence of 100 nM LTC4, is 300-500 cpm for all lots of ^3 H-LTD4. Binding to the filters in the absence of tissue is about 100 cpm, and is not affected by unlabeled LTC4. Specific binding, defined as total binding minus nonspecific binding, varied considerably from lot to lot of ^3 H-LTD4. […]

| SMILES | pIC50 |
| --- | --- |
| O=C(O)c1ccccc1-c1ccccc1C(=O)Nc1cccc(CCc2ccc(Cl)c(Cl)c2)c1 [Example 4, [1,1'-Biphenyl]-2-carboxylic acid, 2'-[[[3-[2-(3,4-dichlorophenyl)ethyl]phenyl]amino]carbonyl]-] | 5.07 |
| CN(C(=O)c1ccccc1-c1ccccc1C(=O)O)c1ccc(CCc2ccc(Cl)c(Cl)c2)cc1 [Example 5, [1,1'-Biphenyl]-2-carboxylic acid, 2'-[[[4-[2-(3,4-dichlorophenyl)ethyl]phenyl]methylamino]carbonyl]-] | 4.84 |
| COc1ccc(CCc2ccc(NC(=O)c3ccccc3-c3ccccc3C(=O)O)cc2)cc1OC [Example 7, [1,1'-Biphenyl]-2-carboxylic acid, 2'-[[[4-[2-(3,4-dimethoxyphenyl)ethyl]phenyl]amino]carbonyl]-] | 4.05 |
| CN(C(=O)c1ccccc1-c1ccccc1C(=O)O)c1ccc(CCc2ccc(Cl)cc2)cc1 [Example 8] | 4.54 |
| O=C(O)c1ccccc1-c1ccccc1C(=O)Nc1ccc(CCc2ccc(Cl)cc2)cc1 [Example 11, [1,1'-Biphenyl]-2-carboxylic acid, 2'-[[4-[2-[(4-chlorophenyl)ethyl]phenyl]amino]carbonyl]-] | 4.87 |
| O=C(O)c1ccccc1-c1ccccc1C(=O)Nc1ccc(CCCCc2ccccc2)cc1 [Example 19, [1,1'-Biphenyl]-2-carboxylic acid, 2'-[[[4-(4-phenylbutyl)phenyl]amino]carbonyl]-] | 5.17 |

Compounds with a higher pIC50, results first:

| pIC50 | SMILES |
| --- | --- |
| 6.00 | O=C(O)c1ccccc1-c1ccccc1C(=O)Nc1ccc(CCCc2ccc(Cl)c(Cl)c2)cc1 [Example 1, [1,1'-Biphenyl]-2-carboxylic acid, 2'-[[[4-[3-(3,4-dichlorophenyl)propyl]phenyl]amino]carbonyl]-] |
| 5.34 | O=C(O)c1ccccc1-c1ccccc1C(=O)Nc1ccc(OCCCc2ccccc2)cc1 [Example 2] |
| 5.32 | O=C(O)c1ccccc1-c1ccccc1C(=O)Nc1ccc(CCc2ccc(Cl)c(Cl)c2)cc1 [Example 3, [1,1'-Biphenyl]-2-carboxylic acid, 2'-[[[4-[2-(3,4-dichlorophenyl)ethyl]phenyl]amino]carbonyl]-] |
| 5.19 | O=C(O)c1ccccc1-c1ccccc1C(=O)Nc1ccc(Cc2ccc(Cl)c(Cl)c2)cc1 [Example 9] |
| 5.38 | O=C(O)c1ccccc1-c1ccccc1C(=O)Nc1ccc(CCCCc2ccc(Cl)c(Cl)c2)cc1 [Example 15, [1,1'-Biphenyl]-2-carboxylic acid, 2'-[[[4-[4-(3,4-dichlorophenyl)butyl]phenyl]amino]carbonyl]-] |
| 5.37 | O=C(O)c1ccccc1-c1ccccc1C(=O)Nc1ccc(CCCc2ccccc2)cc1 [Example 16, [1,1'-Biphenyl]-2-carboxylic acid, 2'-[[[4-(3-phenylpropyl]phenyl]amino]carbonyl]-] |
| 5.64 | O=C(O)c1ccccc1-c1ccccc1C(=O)Nc1ccc(CCCCCc2ccccc2)cc1 [Example 21, [1,1'-Biphenyl]-2-carboxylic acid, 2'-[[[4-(5-phenylpentyl)phenyl]amino]carbonyl]-] |

— patent publication US4786755A, “Diphenic acid monoamides” (Warner-Lambert Company, priority 1986, dated 1988)
